Assay results reported in article PMC11967169 (RSC Advances, 2025).

Biological target: hepatocyte growth factor receptor (MET), exon 14 skipped (Homo sapiens, UniProt P08581, DEL963-1009)
Test: PROTAC degradation of METex14Δ-GFP by live cell imaging in HEK293
Format: cell-based

COc1cc2c(Oc3ccc(NC(=O)C4(C(=O)Nc5ccc(F)cc5)CC4)cc3F)ccnc2cc1OCCCOCCCOCCC(=O)N[C@H](C(=O)N1C[C@H](O)C[C@H]1C(=O)NCc1ccc(-c2scnc2C)cc1)C(C)(C)C
DC50: 2610 ± 115 nM
